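GI50: concentration for 50% inhibition of growth. Definition used: TGI = concentration required for complete inhibition of growth.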
Experiments:
Assay in all cases: NCI tumour cell line growth inhibition, 384-well format
DU-145 prostate = system: DU-145 prostate
786-0 renal = system: 786-0 renal
MOLT-4 leukemia = system: MOLT-4 leukemia
MDA-MB-468 breast = system: MDA-MB-468 breast
UO-31 renal = system: UO-31 renal
PC-3 prostate = system: PC-3 prostate
HCC-2998 colon = system: HCC-2998 colon
UACC-62 melanoma = system: UACC-62 melanoma
HT29 colon = system: HT29 colon
ACHN renal = system: ACHN renal
OVCAR-5 ovarian = system: OVCAR-5 ovarian
SNB-19 CNS = system: SNB-19 CNS
MALME-3M melanoma = system: MALME-3M melanoma

CC(C)(O)c1cc(Nc2cc(Oc3cn(C4CC4)nc3C3CCOCC3)ccn2)ccn1
GI50 (DU-145 prostate): > 100 µM
TGI (DU-145 prostate): > 100 µM
GI50 (786-0 renal): > 72.6 µM
TGI (786-0 renal): > 100 µM
GI50 (MOLT-4 leukemia): 42.7 µM
TGI (MOLT-4 leukemia): > 100 µM
GI50 (MDA-MB-468 breast): 33.8 µM
TGI (MDA-MB-468 breast): > 83.5 µM
GI50 (UO-31 renal): > 100 µM
TGI (UO-31 renal): > 100 µM
GI50 (PC-3 prostate): 76.1 µM
TGI (PC-3 prostate): > 100 µM
GI50 (HCC-2998 colon): > 100 µM
TGI (HCC-2998 colon): > 100 µM
GI50 (UACC-62 melanoma): 52.1 µM
TGI (UACC-62 melanoma): > 100 µM
GI50 (HT29 colon): 54.1 µM
TGI (HT29 colon): > 100 µM
GI50 (ACHN renal): > 100 µM
TGI (ACHN renal): > 100 µM
GI50 (OVCAR-5 ovarian): > 100 µM
TGI (OVCAR-5 ovarian): > 100 µM
GI50 (SNB-19 CNS): > 100 µM
TGI (SNB-19 CNS): > 100 µM
GI50 (MALME-3M melanoma): > 77.1 µM
TGI (MALME-3M melanoma): > 100 µM
